The record followed here is patent US20230286934A1, “Use of Multi-Kinase Inhibitors to Treat RNA Virus Infections” (priority 2020, published 2023).

Like-named read-outs stand apart in the source and are kept apart here.

One data set relates to SARS-CoV-2. Briefly: microbe, parasite or virus in culture. The data set is classed as cell-based. The following applies: for IC50: read-out: IC50 of inhibition of the replication of SARS-CoV-2.
For data set [1], the system named is SARS-CoV2 WA-2020 strain. Type of data set: cell-based. The following applies: Vero E6, 2000 cells/well, MOI 0.05, 72 hours.
Data set [2] has as its system SARS-CoV2 WA-2020 strain. The data set is classed as cell-based. To be noted: Vero E6, 40,000 cells/well, MOI 0.01, 72 hours.
For data set [3], the system named is SARS-CoV2 WA-2020 strain. Type of data set: cell-based. To be noted: Vero E6, 40,000 cells/well, MOI 0.01, 72 hours supernatant.
A further data set deals with Vero E6 cells. To be noted: MTT assay, uninfected Vero E6 cells, same compound dilutions. A general note: Tetrazolium dyes change colour on reduction, which living cells bring about.
[4] abbreviates: Severe acute respiratory syndrome coronavirus 2, Vero C1008, 48 h.

On to `CCN(CCO)CCCC(C)Nc1ccnc2cc(Cl)ccc12` (stereo not drawn) [Hydroxy-Chloroquine], for which the IC50 with SARS-CoV-2 (setting [4]) is 733 nM.

On to `CN1CCN(c2ccc(Nc3ncc4cc(C#N)c(=O)n(C5CCCC5)c4n3)cc2)CC1` [ON123300], for which, in the data set on SARS-CoV-2 (Vero E6 cells, negative control, data not shown), the “effect on viral replication” value was “no effect on viral replication”.

On to `CCC(CC)COC(=O)[C@H](C)N[P@](=O)(OC[C@H]1O[C@@](C#N)(c2ccc3c(N)ncnn23)[C@H](O)[C@@H]1O)Oc1ccccc1` [Remdesivir], for which, in the data set with SARS-CoV-2 (setting [4]), the IC50 was 826 nM.

In the case of `O=C1Nc2cc(S(=O)(=O)Cc3c(Cl)cccc3Cl)ccc2S/C1=C\c1ccc(O)c([N+](=O)[O-])c1` [compound 108600], the IC50 in the data set on SARS-CoV-2 (Vero E6 cells, 2,000 cells/well, MOI 0.025, 48 h, percent infected cells (NP immunostain)) was 13 nM. The “fold more effective/active than Remdesivir (IC50, SARS-CoV-2 replication)” value with SARS-CoV-2 (Vero E6 cells, relative to Remdesivir) is “approximately 63 fold”. Moreover, in the data set on SARS-CoV2 WA-2020 strain [1], the “release of NP protein / virus from infected cells” value was “inhibited SARS-CoV-2 infection of Vero cells in a dose dependent manner”. The “release of NP protein from infected cells into the medium” value with SARS-CoV2 WA-2020 strain [2] is “inhibition was noted only with 10 µM concentration”. Also, in the data set on SARS-CoV2 WA-2020 strain [3], the “infectious titer of released virus (plaque assay)” value is given as “correlated to the infectious titers”. In the data set with Vero E6 cells, the “effect on the viability of Vero E6 cells” value is reported as “little or no effect”.

A word on the IC50: it is the concentration that inhibits the measured activity by half.
